Data from paper PMC6478789, “A chemical toolbox for the study of bromodomains and epigenetic signaling” (Nature Communications, 2019).
Where two headings read alike, the source gives them in different places. One block for each compound: values may come before it.

How the values were obtained:
[1] = molecular target: T1, SETD7 (Homo sapiens, UniProt Q8WTS6); test: Methyl transferase scintillation proximity assay; type: biochemical; settings: average of two measurements; for inhibition at 10 µM: read-out: MTases Inhibition (%)
T1 construct: purchased DiscoverX BROMOscan (bromodomains); SGC in-house methyltransferase panel
T1 sequence (Q8WTS6 1-366): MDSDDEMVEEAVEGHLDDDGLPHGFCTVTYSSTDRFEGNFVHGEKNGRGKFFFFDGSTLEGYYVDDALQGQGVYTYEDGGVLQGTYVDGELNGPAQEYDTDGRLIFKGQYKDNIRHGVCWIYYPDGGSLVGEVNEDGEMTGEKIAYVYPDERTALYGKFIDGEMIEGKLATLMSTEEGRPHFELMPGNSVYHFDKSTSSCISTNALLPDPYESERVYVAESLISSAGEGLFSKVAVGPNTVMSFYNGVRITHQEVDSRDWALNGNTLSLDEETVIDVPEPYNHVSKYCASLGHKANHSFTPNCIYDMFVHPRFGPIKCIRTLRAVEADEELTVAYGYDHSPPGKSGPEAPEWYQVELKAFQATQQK
Protocol: (§1) Assays measuring lysine and arginine methyl transferase activity have been described in Scheer et al.. A radioactivity-based scintillation proximity assay was used to monitor incorporation of a tritium-labeled methyl group into the biotinylated substrate of the methyl transferase. A 10-μl reaction containing ^3H-SAM and substrate at concentrations close to the apparent Km values for each enzyme was prepared. The reactions were quenched with 10 μl of 7.5 M guanidine hydrochloride; 180 μl of 20 mM Tris buffer (pH 8.0) were added; and the mixture was transferred to a 96-well FlashPlate and incubated for 1 h. The counts per minute (CPM) was measured on a TopCount plate reader. The CPM in the absence of compound or enzyme was defined as 100% activity and background (0%), respectively, for each dataset.

[2] = molecular target: T2, SETD2 (Homo sapiens, UniProt Q9BYW2); test: Methyl transferase scintillation proximity assay; type: biochemical; settings: average of two measurements; for inhibition at 10 µM: read-out: MTases Inhibition (%)
T2 construct: purchased DiscoverX BROMOscan (bromodomains); SGC in-house methyltransferase panel
Protocol: as §1

[3] = molecular target: FALZ (Homo sapiens, UniProt Q12830); test: BROMOscan ligand-binding assay
Text: (§2) BROMOscan is a binding assay based on the well-known KINOMEscan technology. This assay measures the binding of a DNA-tagged bromodomain to an immobilized BRD ligand. If an inhibitor is present, it will compete with the bromodomain binding to the immobilized ligand, resulting in reduction of a quantitative PCR (qPCR) signal in a dose-dependent manner.

[4] = molecular target: T3, BRD1 (Homo sapiens, UniProt O95696); test: BROMOscan ligand-binding assay
T3 sequence (O95696 562-666 limits assumed): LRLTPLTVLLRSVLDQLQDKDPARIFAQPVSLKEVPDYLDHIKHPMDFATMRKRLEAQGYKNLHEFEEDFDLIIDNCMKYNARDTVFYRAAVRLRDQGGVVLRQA
Text: as §2

[5] = molecular target: BRDT(1) (Homo sapiens, UniProt Q58F21); test: BROMOscan ligand-binding assay; settings: BROMOscan Gene Symbol BRDT(1)
Text: as §2

[6] = molecular target: T4, EP300 (Homo sapiens, UniProt Q09472); test: BROMOscan ligand-binding assay
T4 sequence (Q09472 1049-1156 limits assumed): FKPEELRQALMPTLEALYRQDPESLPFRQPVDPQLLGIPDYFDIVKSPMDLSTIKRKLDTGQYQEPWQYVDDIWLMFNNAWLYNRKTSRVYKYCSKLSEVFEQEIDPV
Text: as §2

[7] = molecular target: T5, BRPF3 (Homo sapiens, UniProt Q9ULD4); test: BROMOscan ligand-binding assay
T5 sequence (Q9ULD4 589-693 limits assumed): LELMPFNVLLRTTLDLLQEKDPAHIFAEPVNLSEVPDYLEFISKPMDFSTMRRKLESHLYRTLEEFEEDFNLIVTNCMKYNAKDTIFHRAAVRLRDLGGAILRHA
Text: as §2

[8] = molecular target: T6, BRD9 (Homo sapiens, UniProt Q9H8M2); test: BROMOscan ligand-binding assay; settings: BROMOscan Gene Symbol BRD9
T6 sequence (Q9H8M2 136-240 limits assumed): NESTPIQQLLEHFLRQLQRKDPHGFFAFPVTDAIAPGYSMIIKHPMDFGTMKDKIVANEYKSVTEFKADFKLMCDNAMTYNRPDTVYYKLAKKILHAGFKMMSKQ
Text: as §2

[9] = molecular target: BRDT(1,2) (Homo sapiens, UniProt Q58F21); test: BROMOscan ligand-binding assay; settings: KD, BROMOscan Gene Symbol BRDT(1,2)
Text: as §2

[10] = molecular target: SMARCA4 (Homo sapiens, UniProt P51532); test: BROMOscan ligand-binding assay
Text: as §2

[11] = molecular target: BRD4(1,2) (Homo sapiens, UniProt O60885); test: BROMOscan ligand-binding assay
Text: as §2

[12] = molecular target: CECR2 (Homo sapiens, UniProt Q9BXF3); test: BROMOscan ligand-binding assay; settings: KD
Text: as §2

[13] = read-out: KD (BROMOscan), sheet prints no unit (nM)
[14] = KD (BROMOscan), sheet prints no unit (nM)

T2 sequence (Q9BYW2 whole entry): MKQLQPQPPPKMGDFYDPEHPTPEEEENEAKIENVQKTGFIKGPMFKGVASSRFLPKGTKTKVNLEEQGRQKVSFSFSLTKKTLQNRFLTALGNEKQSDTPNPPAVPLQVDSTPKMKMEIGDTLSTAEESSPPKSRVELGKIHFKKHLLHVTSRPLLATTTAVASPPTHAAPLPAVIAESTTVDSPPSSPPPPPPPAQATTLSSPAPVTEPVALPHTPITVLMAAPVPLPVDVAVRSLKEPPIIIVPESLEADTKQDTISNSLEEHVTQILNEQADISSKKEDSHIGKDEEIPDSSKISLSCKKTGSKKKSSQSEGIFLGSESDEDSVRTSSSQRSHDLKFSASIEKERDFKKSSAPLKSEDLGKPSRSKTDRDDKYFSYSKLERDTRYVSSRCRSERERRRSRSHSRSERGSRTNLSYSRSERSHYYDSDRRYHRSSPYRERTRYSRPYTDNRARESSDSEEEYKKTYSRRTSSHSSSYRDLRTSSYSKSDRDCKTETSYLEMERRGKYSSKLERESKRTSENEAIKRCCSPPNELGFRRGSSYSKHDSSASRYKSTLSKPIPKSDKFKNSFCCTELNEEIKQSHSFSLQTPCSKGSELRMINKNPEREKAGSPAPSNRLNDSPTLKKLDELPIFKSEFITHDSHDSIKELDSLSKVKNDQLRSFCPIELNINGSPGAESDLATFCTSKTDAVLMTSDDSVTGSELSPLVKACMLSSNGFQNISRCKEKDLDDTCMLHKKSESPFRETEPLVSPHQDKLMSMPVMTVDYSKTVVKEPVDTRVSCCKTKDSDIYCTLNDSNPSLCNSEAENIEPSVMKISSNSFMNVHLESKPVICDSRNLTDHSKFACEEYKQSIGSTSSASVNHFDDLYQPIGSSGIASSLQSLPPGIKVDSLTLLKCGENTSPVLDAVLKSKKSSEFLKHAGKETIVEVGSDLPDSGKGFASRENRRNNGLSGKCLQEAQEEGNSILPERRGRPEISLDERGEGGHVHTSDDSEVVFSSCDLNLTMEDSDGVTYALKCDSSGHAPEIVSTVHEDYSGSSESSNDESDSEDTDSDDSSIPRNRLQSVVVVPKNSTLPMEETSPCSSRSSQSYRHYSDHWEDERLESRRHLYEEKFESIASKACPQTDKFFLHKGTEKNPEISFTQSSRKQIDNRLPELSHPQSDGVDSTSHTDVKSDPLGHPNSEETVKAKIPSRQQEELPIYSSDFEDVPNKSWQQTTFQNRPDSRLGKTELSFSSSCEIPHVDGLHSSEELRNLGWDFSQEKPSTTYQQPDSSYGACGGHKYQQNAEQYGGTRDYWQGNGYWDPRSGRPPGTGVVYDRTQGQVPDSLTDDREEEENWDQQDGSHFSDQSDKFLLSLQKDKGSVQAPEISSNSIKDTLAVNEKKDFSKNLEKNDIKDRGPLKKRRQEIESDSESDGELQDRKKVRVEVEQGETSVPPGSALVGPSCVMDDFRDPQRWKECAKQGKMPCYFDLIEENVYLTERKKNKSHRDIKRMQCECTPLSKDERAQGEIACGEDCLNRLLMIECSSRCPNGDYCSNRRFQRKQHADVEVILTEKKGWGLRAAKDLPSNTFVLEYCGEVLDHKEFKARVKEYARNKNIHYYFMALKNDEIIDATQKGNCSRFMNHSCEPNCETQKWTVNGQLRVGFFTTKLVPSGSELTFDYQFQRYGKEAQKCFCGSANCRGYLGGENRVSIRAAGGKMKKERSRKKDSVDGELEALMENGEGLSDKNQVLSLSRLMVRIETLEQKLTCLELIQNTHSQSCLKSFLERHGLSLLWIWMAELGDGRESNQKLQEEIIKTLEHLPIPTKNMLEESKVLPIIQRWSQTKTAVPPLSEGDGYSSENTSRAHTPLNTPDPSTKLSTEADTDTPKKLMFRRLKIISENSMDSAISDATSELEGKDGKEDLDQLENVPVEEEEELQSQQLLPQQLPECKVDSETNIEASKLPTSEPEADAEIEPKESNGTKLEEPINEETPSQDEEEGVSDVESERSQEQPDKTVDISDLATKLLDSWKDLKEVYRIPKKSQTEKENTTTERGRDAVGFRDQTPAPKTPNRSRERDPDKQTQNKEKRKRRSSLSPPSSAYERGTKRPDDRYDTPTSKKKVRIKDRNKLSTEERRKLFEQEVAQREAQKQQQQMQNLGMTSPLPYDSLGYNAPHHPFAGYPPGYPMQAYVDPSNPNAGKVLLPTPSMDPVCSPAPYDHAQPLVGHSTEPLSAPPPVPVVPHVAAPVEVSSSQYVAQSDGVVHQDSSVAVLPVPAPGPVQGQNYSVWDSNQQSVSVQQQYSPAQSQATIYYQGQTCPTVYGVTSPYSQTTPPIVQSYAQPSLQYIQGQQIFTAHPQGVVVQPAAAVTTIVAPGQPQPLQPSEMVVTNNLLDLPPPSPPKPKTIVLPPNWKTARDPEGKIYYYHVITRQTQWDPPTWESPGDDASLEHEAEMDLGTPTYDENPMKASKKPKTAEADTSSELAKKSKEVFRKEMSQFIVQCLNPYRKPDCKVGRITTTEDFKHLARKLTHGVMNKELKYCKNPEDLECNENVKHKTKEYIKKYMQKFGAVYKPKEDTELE
Chain of SMARCA4 (P51532 1453-1564 limits assumed): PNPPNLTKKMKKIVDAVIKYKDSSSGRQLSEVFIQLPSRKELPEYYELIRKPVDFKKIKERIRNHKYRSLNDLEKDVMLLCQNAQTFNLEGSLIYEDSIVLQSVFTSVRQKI
Chain of CECR2 (Q9BXF3 434-538 limits assumed): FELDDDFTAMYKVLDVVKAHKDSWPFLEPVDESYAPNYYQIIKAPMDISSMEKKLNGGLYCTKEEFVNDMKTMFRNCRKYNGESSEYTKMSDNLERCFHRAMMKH

SMILES: Cc1c(NC(=O)c2cc(C(N)=O)nc3cc(F)ccc23)c(C(F)(F)F)nn1Cc1ccc(C(C)(C)C)cc1 [BAY-588]
inhibition at 10 µM [1]: 10% | inhibition at 10 µM [2]: 0%

SMILES: COc1cc(Cl)c(C(=O)N[C@@H](CN[C@H]2CC[C@@H](N)CC2)Cc2ccc(C#N)cc2)cc1-c1ccc(CN[C@H](C)c2ccc(C)cc2)o1 [BAY-850]
inhibition at 10 µM [1]: 11% | inhibition at 10 µM [2]: 7%

SMILES: Cc1c(NC(=O)c2cc(C(N)=O)nc3cc(F)ccc23)c(C(F)(F)F)nn1Cc1ccc(C#N)cc1 [BAY-876]
inhibition at 10 µM [1]: 10% | inhibition at 10 µM [2]: -4%

SMILES: Cc1noc(C)c1-c1ccc2c(c1)nc(CCc1ccccc1)n2CCN1CCOCC1 [CBP30-298]
Kd ([3]; BROMOscan Gene Symbol FALZ): > 50000 nM | Kd [3, 13]: > 30000 nM | Kd ([4]; BROMOscan Gene Symbol BRD1): 46 µM | Kd [5]: 1.8 µM | Kd ([6]; BROMOscan Gene Symbol EP300): 0.092 µM | Kd ([7]; BROMOscan Gene Symbol BRPF3): > 50000 nM | Kd [7, 13]: > 30000 nM | Kd [8]: 12 µM

SMILES: CCC(=O)N1CCOc2c(cc(-c3ccc(OC)c(OC)c3)cc2OCC2CCCN(C)C2)C1 (stereo not drawn) [I-CBP112]
Kd ([3]; KD, FALZ): 5500 nM | Kd [4]: 51 µM | Kd [9]: 9.6 µM | Kd [10, 14]: > 30000 nM | Kd ([10]; KD, SMARCA4): > 100000 nM | Kd [11]: 11 µM | Kd ([5]; KD): 4.2 µM | Kd ([12]; CECR2): 17 µM | Kd ([6]; KD, EP300): 0.12 µM | Kd ([7]; KD, BRPF3): 95000 nM | Kd ([8]; KD): 25 µM

The remaining lines, values ahead:

Kd ([3]; KD, BROMOscan Gene Symbol FALZ): 95000 nM | Kd [4]: 60 µM | Kd [9]: 52 µM | Kd [10, 14]: > 30000 nM | Kd ([10]; KD, BROMOscan Gene Symbol SMARCA4): > 100000 nM | Kd [11]: 65 µM | Kd ([5]; KD): 30 µM | Kd ([12]; BROMOscan Gene Symbol CECR2): 9 µM | Kd ([6]; KD, BROMOscan Gene Symbol EP300): 70 µM | Kd ([7]; KD, BROMOscan Gene Symbol BRPF3): 15000 nM | Kd ([8]; KD): 0.12 µM
SMILES: CCCOc1ccn2c(C(C)=O)cc(-c3ccccc3S(C)(=O)=O)c2c1 [GSK2801]

inhibition at 10 µM [1]: 12% | inhibition at 10 µM [2]: -1%
SMILES: CN1C[C@H](Nc2cnn(C)c(=O)c2Br)C[C@H](c2ccccc2)C1 [GSK4027]

MTases Inhibition (%) ([1]; 10µM): 7% | MTases Inhibition (%) ([2]; 10µM): 1%
SMILES: COc1ccccc1C(=O)Nc1cc2c(cc1N1CCNC[C@H]1C)n(C)c(=O)n2C [GSK6853]

inhibition at 10 µM [1]: 7% | inhibition at 10 µM [2]: 7%
SMILES: CO[C@H]1CNC[C@@H](OCC2CCC(F)(F)CC2)[C@@H]1Nc1ncc(-c2cncc(C)c2)c2cc(C)c(=O)[nH]c12 [GSK8814]
